Laboratory results published in patent EP1107982B1, “[…] COMPLEXES OF 1,2-(CIS)-DIOL CYCLIC PEPTIDES” (Eli Lilly & Company, priority 1998, dated 2000).
*1 amine or outer side, *2 acyl side, *3 side chain or, on linkers, in order; H or OH if unused. Where a SMILES comes first, the peptide text is derived from it. Bridges are numbered along the chain shown (N, C = ends). [ ]: non-standard residue; d: D form. The star is where a group is joined. pTerphenylCO(4''-OnC5H11) = CCCCCOc1ccc(-c2ccc(-c3ccc(C(=O)*)cc3)cc2)cc1; Orn(4R-OH,5R-OH) = O=C([C@H](C[C@@H](O)[C@@H](O)N[*:3])N[*:1])[*:2]; hTyr(3S-OH,4S-OH) = N[C@H](C(=O)O)[C@H](O)[C@@H](O)c1ccc(O)cc1; Pro(3S-OH,4S-Me) = C[C@H]1CN[C@H](C(=O)O)[C@H]1O; Hyp = O=C(O)[C@@H]1C[C@@H](O)CN1

Assays:
[1] = Solubility of Compound C1 in the presence of m-APBA (suspension, centrifugation, HPLC of supernatant); assay type: physicochemical; settings: for appearance of aqueous solution: 30 mg/ml
Method: (§1) Unless indicated otherwise, all chemicals can be acquired from commercial sources (i.e., Aldrich Chemical, Sigma, etc.) in reagent grade or better. Centrifugation was performed using an IEC benchtop clinical centrifuge equipped with six-place swinging-bucket rotor (for samples > 1.5 ml) and an Eppendorf tabletop centri fuge model 5415C equipped with standard 18-place rotor (for samples ≤ 1.5 ml). HPLC analyses were performed using a Hewlett Packard Liquid Chromatograph Model 1090 equipped with a 0.46 x 25 cm Zorbax™ SB-C8 column. All injections were 10 µl, followed by gradient elution from 40-100% acetonitrile (AcN) over 25 minutes and UV detection at 280 nm. Unless otherwise stated, samples were diluted in 0.25 N acetic acid/AcN prior to injection to facilitate decomplexation and ensure solubility in the HPLC solvent system. All alkaline pH adjustments were made by addition of a 1:1 mixture of ammonium hydroxide and 50% sodium hydroxide. Measurements were taken with a Beckman φ40 pH meter calibrated with pH 7 and pH 10 standards.
Crude C1 was suspended at 50 mg/ml (65% potency: 32.5 mg/ml, or 28.5 mM) in 4 ml of either 100 mM m-APBA or 100 mM ammonium bicarbonate (control) at pH 5.0 and pH 9.0. The samples were stirred at room temperature for 2 hours, at which time aliquots were removed and assayed both before and after centrifugation for five minutes at […]. All samples were diluted 50-fold prior to HPLC analysis.
At low pH (≤ 8.0), solid suspensions of Compound C1 in m-APBA and in ammonium bicarbonate were visually identical. Both were opaque and contained varying amounts of solid, insoluble material. However, when the pH was adjusted to 9.0 dramatic differences in appearance between the two samples was observed within approximately 30 minutes. The aqueous ammonium bicarbonate control was beige in color and completely opaque; whereas, the sample containing m-APBA turned a transparent, dark brown. When the mixtures were subjected to centrifugation for 5 minutes at 16,000 x g and the resulting supernatants quantified by HPLC analysis, the concentration of C1 present in the m-APBA supernatant was 23.76 mg/ml (94% of that in the original suspension) and only 2.27 mg/ml (10% of the original suspension) was present in the ammonium bicarbonate control supernatant.

[2] = Stability of Compound C1 in m-APBA at alkaline pH (HPLC main peak purity); assay type: physicochemical
Method: as §1
Compound C1 was suspended at 100 mg/ml (65% potency: 65 mg/ml (57 mM) in either 250 mM m-APBA or water (control). Separate samples were adjusted to pH 8.0, 8.5, 9.0, 9.5 and 10.0. Aliquots for time-point analysis were removed and diluted 100-fold in 100 mM acetic acid/methanol prior to HPLC injection. Stability was assessed by analysis of main peak purity, since degradation products are known to elute within the HPLC chromatographic window.

[3] = m-APBA replaced with boric acid (borate complex)

In the case of `CCCCCOc1ccc(-c2ccc(-c3ccc(C(=O)N[C@H]4C[C@@H](O)[C@@H](O)NC(=O)[C@@H]5[C@@H](O)[C@@H](C)CN5C(=O)[C@H]([C@@H](C)O)NC(=O)[C@H]([C@H](O)[C@@H](O)c5ccc(O)cc5)NC(=O)[C@@H]5C[C@@H](O)CN5C(=O)[C@H]([C@@H](C)O)NC4=O)cc3)cc2)cc1` [Compound C1] ({pTerphenylCO(4''-OnC5H11)}-[Orn(4R-OH,5R-OH)]T[Hyp][hTyr(3S-OH,4S-OH)]T[Pro(3S-OH,4S-Me)]; lactam 1-C), the “concentration in supernatant as % of the original suspension” value ([1]; 100 mM ammonium bicarbonate control, pH 9.0) was 10%, the solubility thermodynamic at 2 h ([1]; 100 mM ammonium bicarbonate control, pH 9.0, room temperature, crude C1 suspended at 50 mg/ml (32.5 mg/ml), after centrifugation, read-out: concentration of C1 present in the supernatant) was 2.27 mg/mL and the “concentration in supernatant as % of that in the original suspension” value ([1]; 100 mM m-APBA, pH 9.0) was 94%. For the same compound, the “concentration of C1 present in the supernatant” value ([1]; 100 mM m-APBA, pH 9.0, room temperature, crude C1 suspended at 50 mg/ml (32.5 mg/ml), after centrifugation) was 23760 µg/mL, the “appearance of aqueous solution” value ([1]; boronate complex) was “transparent solution” and the increase in solubility ([1]; in the presence of m-aminophenyl boronic acid at pH 9.0 in aqueous solution) was 10 fold. The solubility of complex [1, 3] was “increased solubility”, the solubility of complex ([1]; m-APBA replaced with p-carboxyphenyl boronic acid (boronate complex)) was “increased solubility” and the “appearance of aqueous solution” value ([1]; non-complexed) was “opaque slurry”. For the same compound, the “purity (main peak)” value ([2]; 250 mM m-APBA, pH 9.5, after 17 hours) was > 70%, the “purity (main peak, of the total peak area)” value ([2]; aqueous control (water), pH 9.5, after 9 hours) was “less than 70%” and the “chemical stability in comparison to the aqueous control” value ([2]; in the presence of m-APBA, alkaline pH) was “enhanced chemical stability”. For the same compound, the stability of complex [2, 3] was “very stable” and the stability of complex ([2]; p-carboxyphenylboronic acid used instead of m-APBA) was “did not appear to be as stable”.
